Measurements from ChEMBL document CHEMBL1201862, “PubChem BioAssay data set” (2004).
Activity calls are given as the source filed them.

Columns and labels:
[1] = molecular target: Cytochrome P450 2C19 (Homo sapiens, UniProt P33261); test: Cytochrome panel assay with activity outcomes. Panel member name: p450-cyp2c19 Compounds with AC50 equal or less than 10 uM are considered active; assay type: functional
[2] = molecular target: T1, Cytochrome P450 1A2 (Homo sapiens, UniProt P05177)
T1 sequence (P05177 whole entry): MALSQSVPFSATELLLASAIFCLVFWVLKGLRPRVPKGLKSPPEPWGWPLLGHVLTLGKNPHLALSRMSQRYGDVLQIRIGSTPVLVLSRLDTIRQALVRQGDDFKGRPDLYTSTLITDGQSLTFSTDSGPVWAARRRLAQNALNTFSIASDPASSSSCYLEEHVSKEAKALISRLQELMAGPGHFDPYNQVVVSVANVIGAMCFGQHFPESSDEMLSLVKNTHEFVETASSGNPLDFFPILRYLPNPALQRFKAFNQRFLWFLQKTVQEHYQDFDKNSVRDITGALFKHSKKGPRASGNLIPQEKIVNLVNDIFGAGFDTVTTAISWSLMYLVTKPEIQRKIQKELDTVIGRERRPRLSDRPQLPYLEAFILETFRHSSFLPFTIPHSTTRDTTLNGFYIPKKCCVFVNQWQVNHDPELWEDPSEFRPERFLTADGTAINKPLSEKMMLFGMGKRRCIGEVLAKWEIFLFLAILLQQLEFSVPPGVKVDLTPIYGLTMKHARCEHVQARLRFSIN

[3] = molecular target: Cytochrome P450 2D6 (Homo sapiens, UniProt P10635);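 also: CYP2D6 member of a cytochrome P450 panel assay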
Chain of Cytochrome P450 2D6 (P10635 whole entry): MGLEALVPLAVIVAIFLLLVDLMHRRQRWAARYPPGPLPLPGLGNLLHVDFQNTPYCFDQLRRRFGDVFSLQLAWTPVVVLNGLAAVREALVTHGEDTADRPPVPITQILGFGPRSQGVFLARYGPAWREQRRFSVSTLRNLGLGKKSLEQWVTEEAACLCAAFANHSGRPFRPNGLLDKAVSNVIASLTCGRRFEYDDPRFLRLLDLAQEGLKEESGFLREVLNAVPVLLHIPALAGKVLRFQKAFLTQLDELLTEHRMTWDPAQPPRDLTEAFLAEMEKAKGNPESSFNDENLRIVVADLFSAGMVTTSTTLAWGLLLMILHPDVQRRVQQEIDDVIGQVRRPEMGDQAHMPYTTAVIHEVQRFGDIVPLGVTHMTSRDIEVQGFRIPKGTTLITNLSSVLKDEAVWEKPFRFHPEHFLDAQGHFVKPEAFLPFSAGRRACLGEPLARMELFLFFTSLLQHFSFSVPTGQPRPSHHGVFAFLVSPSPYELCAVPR

[4] = molecular target: Cytochrome P450 3A4 (Homo sapiens, UniProt P08684);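 also: CYP3A4 tested as one member of a cytochrome P450 panel screen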
Chain of Cytochrome P450 3A4 (P08684 whole entry, the tested form may be a part): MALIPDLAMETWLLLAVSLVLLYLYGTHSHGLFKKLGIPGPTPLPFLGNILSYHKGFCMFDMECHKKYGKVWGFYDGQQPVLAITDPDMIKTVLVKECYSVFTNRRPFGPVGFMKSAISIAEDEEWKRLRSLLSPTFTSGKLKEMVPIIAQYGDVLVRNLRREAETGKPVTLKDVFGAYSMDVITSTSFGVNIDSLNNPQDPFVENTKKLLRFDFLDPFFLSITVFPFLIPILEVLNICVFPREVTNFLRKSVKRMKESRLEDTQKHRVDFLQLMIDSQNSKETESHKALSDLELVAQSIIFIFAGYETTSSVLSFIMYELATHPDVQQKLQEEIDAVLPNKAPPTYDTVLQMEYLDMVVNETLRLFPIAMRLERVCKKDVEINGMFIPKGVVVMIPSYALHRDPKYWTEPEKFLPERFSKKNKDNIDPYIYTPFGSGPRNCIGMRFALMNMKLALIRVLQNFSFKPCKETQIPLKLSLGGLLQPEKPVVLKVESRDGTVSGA

[5] = molecular target: T2, RNA-binding protein pos-1 (Caenorhabditis elegans, UniProt G5EF15); test: disruptors of C. elegans POS-1 RNA interaction – biochemical, fluorescence polarization, dose response (AID 1964);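 also: purified POS-1 fused to maltose binding protein made in E. coli; potency of compounds blocking POS-1 binding to fluorescent RNA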
T2 sequence (G5EF15 whole entry): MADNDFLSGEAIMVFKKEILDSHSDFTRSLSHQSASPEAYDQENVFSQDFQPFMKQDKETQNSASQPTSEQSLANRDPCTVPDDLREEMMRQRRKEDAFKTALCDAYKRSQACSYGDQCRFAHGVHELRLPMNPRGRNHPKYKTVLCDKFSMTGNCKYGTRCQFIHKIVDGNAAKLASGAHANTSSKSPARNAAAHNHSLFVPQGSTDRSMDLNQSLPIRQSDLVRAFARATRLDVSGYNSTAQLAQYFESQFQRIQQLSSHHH

[6] = molecular target: T3, Endoribonuclease toxin MazF (Escherichia coli K-12, UniProt P0AE70); test: activation of MazEF endoribonuclease cleavage – biochemical, fluorescence, single-stranded RNA substrate, uHTS hits, dose response (AID 588481); assay type: functional
T3 sequence (P0AE70 whole entry): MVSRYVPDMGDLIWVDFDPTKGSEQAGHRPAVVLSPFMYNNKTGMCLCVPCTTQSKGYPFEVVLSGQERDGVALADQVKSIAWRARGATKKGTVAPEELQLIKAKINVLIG

[7] = molecular target: T4, Zinc finger protein mex-5 (Caenorhabditis elegans, UniProt Q9XUB2); test: potency of MEX-5 RNA-binding blockers – biochemical, C. elegans, fluorescence polarization, dose response (AID 1960)
T4 sequence (Q9XUB2 whole entry): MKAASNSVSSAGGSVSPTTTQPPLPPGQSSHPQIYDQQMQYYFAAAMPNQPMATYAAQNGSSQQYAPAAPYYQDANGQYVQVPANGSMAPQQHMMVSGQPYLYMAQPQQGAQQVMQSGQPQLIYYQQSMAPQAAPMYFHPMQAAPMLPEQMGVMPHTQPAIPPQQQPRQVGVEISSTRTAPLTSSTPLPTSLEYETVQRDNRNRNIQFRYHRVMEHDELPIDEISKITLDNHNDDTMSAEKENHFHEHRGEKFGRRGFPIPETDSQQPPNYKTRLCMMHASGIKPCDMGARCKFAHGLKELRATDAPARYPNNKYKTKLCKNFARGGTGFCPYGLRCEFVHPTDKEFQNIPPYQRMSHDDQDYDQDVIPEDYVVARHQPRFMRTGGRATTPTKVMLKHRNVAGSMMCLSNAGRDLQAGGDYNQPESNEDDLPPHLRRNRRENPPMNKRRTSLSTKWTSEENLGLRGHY

[8] = molecular target: T3, Endoribonuclease toxin MazF; test: substrate-only fluorescence increase artefacts – biochemical, single-stranded RNase substrate, counter-screen for MazEF activator project, dose response (AID 588502); assay type: functional
[9] = molecular target: UDP-galactopyranose mutase (Mycobacterium tuberculosis, UniProt P9WIQ1); test: Inhibitors of Mycobacterium tuberculosis UDP-galactopyranose mutase (UGM) enzyme Measured in Biochemical System Using Plate Reader - 2105-02_Inhibitor_Dose_CherryPick_Activity. [Related pubchem assays (depositor defined):AID504439]
Chain of UDP-galactopyranose mutase (P9WIQ1 whole entry): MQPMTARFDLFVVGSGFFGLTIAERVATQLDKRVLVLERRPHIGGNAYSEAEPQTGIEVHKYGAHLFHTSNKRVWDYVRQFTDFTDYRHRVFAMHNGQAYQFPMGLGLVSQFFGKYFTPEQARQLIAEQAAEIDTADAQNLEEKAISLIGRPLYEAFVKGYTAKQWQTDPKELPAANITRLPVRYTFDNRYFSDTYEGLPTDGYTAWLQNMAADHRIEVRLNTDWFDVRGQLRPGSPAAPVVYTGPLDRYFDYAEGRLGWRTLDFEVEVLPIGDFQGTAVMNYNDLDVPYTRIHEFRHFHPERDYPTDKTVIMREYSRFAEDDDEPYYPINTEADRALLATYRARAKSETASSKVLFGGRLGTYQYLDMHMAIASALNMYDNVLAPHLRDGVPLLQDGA

[10] = molecular target: T5, Mannose-6-phosphate isomerase (Homo sapiens, UniProt P34949); test: phosphomannose isomerase inhibition – biochemical, fluorescence intensity, confirmation (AID 1535)
T5 sequence (P34949 whole entry): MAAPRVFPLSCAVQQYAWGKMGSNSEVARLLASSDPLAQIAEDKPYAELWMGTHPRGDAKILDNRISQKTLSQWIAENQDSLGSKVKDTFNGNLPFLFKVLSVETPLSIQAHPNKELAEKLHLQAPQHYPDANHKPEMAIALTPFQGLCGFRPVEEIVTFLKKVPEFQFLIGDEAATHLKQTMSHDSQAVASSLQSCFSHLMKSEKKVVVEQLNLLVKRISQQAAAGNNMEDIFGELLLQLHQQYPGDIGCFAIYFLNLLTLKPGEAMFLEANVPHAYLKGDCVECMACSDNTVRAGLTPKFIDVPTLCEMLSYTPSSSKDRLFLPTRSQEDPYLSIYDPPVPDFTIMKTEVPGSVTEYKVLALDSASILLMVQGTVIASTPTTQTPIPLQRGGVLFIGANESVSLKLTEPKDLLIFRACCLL

[11] = test system: Escherichia coli; test: microbe, parasite or virus in culture
[12] = molecular target: DNA dC->dU-editing enzyme APOBEC-3A (Homo sapiens, UniProt P31941); test: A3A deaminase inhibition for selectivity – biochemical, dose response (AID 504722); assay type: functional
Chain of DNA dC->dU-editing enzyme APOBEC-3A (P31941 whole entry): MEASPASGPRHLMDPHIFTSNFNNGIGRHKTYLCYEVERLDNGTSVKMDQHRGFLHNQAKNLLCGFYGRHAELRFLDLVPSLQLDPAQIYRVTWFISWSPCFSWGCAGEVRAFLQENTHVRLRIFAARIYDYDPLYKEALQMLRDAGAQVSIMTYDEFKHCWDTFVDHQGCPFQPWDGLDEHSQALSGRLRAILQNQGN

[13] = molecular target: Procathepsin L (Homo sapiens, UniProt P07711); test: CTSL1 protease inhibition – biochemical, QFRET, 1536-well, counter-screen for M1/M17 aminopeptidase inhibitor project, dose response (AID 2214)
Chain of Procathepsin L (P07711 whole entry): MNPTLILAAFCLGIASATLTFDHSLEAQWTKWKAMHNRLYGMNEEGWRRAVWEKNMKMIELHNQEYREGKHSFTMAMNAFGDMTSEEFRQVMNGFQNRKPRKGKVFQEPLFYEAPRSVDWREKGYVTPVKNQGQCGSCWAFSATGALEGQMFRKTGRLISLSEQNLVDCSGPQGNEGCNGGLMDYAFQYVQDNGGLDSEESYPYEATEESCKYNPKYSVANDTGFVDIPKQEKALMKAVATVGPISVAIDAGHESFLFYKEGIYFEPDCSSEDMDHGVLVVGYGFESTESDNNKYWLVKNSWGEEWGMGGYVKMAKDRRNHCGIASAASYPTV

[14] = molecular target: T6, Aspartyl aminopeptidase (Plasmodium falciparum 3D7, UniProt Q8I2J3); test: Counterscreen for inhibitors of M1 and M17 aminopeptidases: QFRET-based biochemical high throughput dose response assay for inhibitors of the Plasmodium falciparum M18 Aspartyl Aminopeptidase (PFM18AAP). [Related PubChem assays: 1619 (Screening assay (M17LAP inhibitors).), 1445 (Screening assay (M1AAP inhibitors).)]
T6 sequence (Q8I2J3 whole entry): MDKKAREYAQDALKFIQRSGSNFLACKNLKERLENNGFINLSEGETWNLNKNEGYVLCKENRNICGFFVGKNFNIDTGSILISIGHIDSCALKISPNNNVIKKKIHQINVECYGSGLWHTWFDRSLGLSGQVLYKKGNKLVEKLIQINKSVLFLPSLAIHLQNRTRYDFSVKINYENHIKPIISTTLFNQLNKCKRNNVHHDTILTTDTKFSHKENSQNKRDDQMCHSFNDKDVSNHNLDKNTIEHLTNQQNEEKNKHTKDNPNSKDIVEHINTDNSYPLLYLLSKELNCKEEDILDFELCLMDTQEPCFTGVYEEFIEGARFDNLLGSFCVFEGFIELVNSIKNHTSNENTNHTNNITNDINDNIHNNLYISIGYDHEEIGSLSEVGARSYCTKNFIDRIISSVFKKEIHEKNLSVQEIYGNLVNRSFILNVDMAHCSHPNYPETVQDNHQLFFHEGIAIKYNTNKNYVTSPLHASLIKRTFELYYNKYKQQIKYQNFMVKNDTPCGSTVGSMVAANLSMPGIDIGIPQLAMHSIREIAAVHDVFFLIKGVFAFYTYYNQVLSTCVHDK

[15] = molecular target: Phosphomannomutase 2 (Homo sapiens, UniProt O15305); test: Counter screen SAR assay for PMM2 inhibitors via a fluorescence intensity assay. [Related pubchem assays (depositor defined):AID1545, AID1574]
Chain of Phosphomannomutase 2 (O15305 whole entry): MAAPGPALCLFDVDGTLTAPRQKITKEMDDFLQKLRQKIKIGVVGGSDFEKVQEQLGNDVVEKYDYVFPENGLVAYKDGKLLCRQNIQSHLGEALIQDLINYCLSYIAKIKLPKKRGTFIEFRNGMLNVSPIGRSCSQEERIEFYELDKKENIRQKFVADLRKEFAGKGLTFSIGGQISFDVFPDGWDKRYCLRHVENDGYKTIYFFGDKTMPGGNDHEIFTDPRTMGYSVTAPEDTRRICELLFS

[16] = molecular target: T7, Leucine aminopeptidase (Plasmodium falciparum 3D7, UniProt Q8IL11); test: P. falciparum M17LAP inhibitors, primary screen, biochemical, fluorogenic H-Leu-NHMec substrate, 1536-well (AID 1619); assay type: functional
T7 sequence (Q8IL11 whole entry): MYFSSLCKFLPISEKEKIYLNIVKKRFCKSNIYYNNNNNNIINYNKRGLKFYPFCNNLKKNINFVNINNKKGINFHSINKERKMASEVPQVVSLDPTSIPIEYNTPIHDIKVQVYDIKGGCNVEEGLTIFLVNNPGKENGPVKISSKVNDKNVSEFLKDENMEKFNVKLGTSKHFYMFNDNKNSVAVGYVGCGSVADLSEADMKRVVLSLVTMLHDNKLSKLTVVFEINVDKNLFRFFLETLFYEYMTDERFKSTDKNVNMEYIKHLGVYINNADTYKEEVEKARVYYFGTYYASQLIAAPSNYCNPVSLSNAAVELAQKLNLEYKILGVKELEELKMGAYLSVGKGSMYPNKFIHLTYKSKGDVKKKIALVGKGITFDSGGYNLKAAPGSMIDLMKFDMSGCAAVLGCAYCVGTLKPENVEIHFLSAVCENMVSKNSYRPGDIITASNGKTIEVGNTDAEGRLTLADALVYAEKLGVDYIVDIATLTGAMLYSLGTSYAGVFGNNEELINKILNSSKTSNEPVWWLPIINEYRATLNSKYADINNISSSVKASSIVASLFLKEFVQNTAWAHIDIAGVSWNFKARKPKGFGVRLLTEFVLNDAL

Chain of Cytochrome P450 2C19 (P33261 whole entry): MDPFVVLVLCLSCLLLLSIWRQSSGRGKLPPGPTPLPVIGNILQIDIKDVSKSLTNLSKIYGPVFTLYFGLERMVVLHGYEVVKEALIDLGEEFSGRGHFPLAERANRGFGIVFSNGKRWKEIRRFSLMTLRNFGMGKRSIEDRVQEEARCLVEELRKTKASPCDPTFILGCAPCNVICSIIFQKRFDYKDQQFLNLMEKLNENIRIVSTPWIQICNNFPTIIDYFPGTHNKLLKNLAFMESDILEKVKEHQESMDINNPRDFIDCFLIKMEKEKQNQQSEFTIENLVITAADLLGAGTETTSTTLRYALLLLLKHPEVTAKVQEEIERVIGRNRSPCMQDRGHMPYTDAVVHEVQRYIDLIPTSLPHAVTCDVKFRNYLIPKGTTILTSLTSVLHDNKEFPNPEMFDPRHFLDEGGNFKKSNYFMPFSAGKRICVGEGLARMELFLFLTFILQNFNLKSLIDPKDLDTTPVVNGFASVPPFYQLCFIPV

## CCOC(=O)[C@H](CCc1ccccc1)N[C@@H](C)C(=O)N1[C@H](C(=O)O)C[C@H]2CCC[C@@H]21
[1]
  AC50: inactive
[2]
  AC50: inactive

## O=C(c1cccc(F)c1)N1CCC2(CC1)CCN(c1ccccn1)CC2
[3]
  AC50: 20 µM (inconclusive)
[4]
  AC50: inconclusive

## Cc1ccc(Cl)c2c(N=Nc3ccccc3)c(O)[nH]c12
[5]
  EC50: 18.6 µM (active)
[6]
  EC50: 19.1 µM (active)
[7]
  EC50: > 300 µM (inconclusive)
[8]
  EC50: 8.15 µM (active)
[9]
  AC50: 113 µM (active)

## Sc1n[nH]c(-c2ccccc2Br)n1
[10]
  IC50: 37.6 µM (active)
[11]
  AC50: 30.2 µM (active)
[12]
  IC50: > 100 µM (inactive)
[13]
  IC50: > 59.6 µM (not active)
[14]
  IC50: 19.3 µM (not active)
[15]
  IC50: > 100 µM (inactive)
[16]
  IC50: 4.67 µM (active)
